Laboratory results taken from patent US12054498B2, “Heteroaromatic macrocyclic ether chemotherapeutic agents” (Nuvalent, Inc., priority 2020, dated 2024).

Key:
[1] = molecular target: T1, Ba/F3 cells CD74-ROS1 wild-type (wt) (Homo sapiens, UniProt P08922); assay: Ba/F3 cell proliferation assay, CD74-ROS1 wild-type; format: cell-based; conditions: 72 hours, CellTiter-Glo
T1 construct: fusion of the C-terminus of ROS1 with the N-terminus of various partner proteins; host or cells: Ba/F3 (RIKEN), retroviral pMSCV-puro; the other entry of the earlier key: CD74 (P04233, HLA class II histocompatibility antigen gamma chain)
Method in brief: (§1)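 Cells seeded 1 day, then treated with 3-fold compound dilutions for 72 h; viability by CellTiter-Glo luminescence. IC50 from percent inhibition by four-parameter logistic fit.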

[2] = molecular target: T2, ALK-wt (Homo sapiens, UniProt Q9UM73); assay: Biochemical kinase assay, ALK-wt kinase domain; conditions: apparent inhibitory constant, Morrison equation; ATP 2 mM in substrate solution; read-out: ALK-wt Ki^app
T2 construct: purchased Carna 08-518
Method in brief: (§2)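 Apparent Ki values come from fitting initial reaction rates against inhibitor concentration to the Morrison equation. Rates were taken from the linear phase of fluorogenic substrate phosphorylation (AQT0101 for ALK and ROS1, AQT0104 for TRKA; 26 μM in substrate solution with 2 mM ATP), monitored at 485 nm over 120 min at 30° C.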

[3] = molecular target: T3, Ba/F3 cells EML4-ALK L1196M/G1202R (variant 1) (Homo sapiens, UniProt Q9UM73, G1202R/L1196M); assay: Ba/F3 cell proliferation assay, EML4-ALK L1196M/G1202R (variant 1); format: cell-based; conditions: 72 hours, CellTiter-Glo
T3 construct: echinoderm microtubule-associated protein-like 4 (EML4) gene and the ALK tyrosine kinase domain; host or cells: Ba/F3 (RIKEN), retroviral pMSCV-puro; the other entry of the earlier key: EML4 (Q9HC35, Echinoderm microtubule-associated protein-like 4)
Method in brief: (§3)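 Proliferation of fusion-driven Ba/F3 monoclones (grown without IL-3, puromycin 0.8 μg/mL) is followed over 72 hours of treatment with a 3-fold compound dilution series. ATP content is read by CellTiter-Glo luminescence, and IC50 is derived by four-parameter logistic fitting of percent inhibition.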

[4] = molecular target: T4, ROS1-G2032R (Homo sapiens, UniProt P08922, G2032R); assay: Biochemical kinase assay, ROS1-G2032R kinase domain; conditions: apparent inhibitory constant, Morrison equation; ATP 2 mM in substrate solution; read-out: ROS1-G2032R Ki^app
T4 construct: purchased SignalChem R14-12BG
Method in brief: (§4)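 Compounds, as 100-fold DMSO stocks, were dispensed first, then substrate mix was added (ATP 2 mM, AQT0101 26 μM, in 50 mM HEPES pH 7.5/10 mM MgCl2). Reactions ran at 30 °C with fluorescence logged every 2 min over 120 min. Apparent inhibition constants came from fitting rates to Morrison's tight-binding equation.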

[5] = molecular target: T5, Ba/F3 cells EML4-ALK wt (variant 1) (Homo sapiens, UniProt Q9UM73); assay: Ba/F3 cell proliferation assay, EML4-ALK wt (variant 1); format: cell-based; conditions: 72 hours, CellTiter-Glo
T5 construct: echinoderm microtubule-associated protein-like 4 (EML4) gene and the ALK tyrosine kinase domain; host or cells: Ba/F3 (RIKEN), retroviral pMSCV-puro; the other entry of the earlier key: EML4 (Q9HC35, Echinoderm microtubule-associated protein-like 4)
Method in brief: as §3

[6] = molecular target: T6, Ba/F3 cells TPM3-TRKA (Homo sapiens, UniProt P04629); assay: Ba/F3 cell proliferation assay, TPM3-TRKA; format: cell-based; conditions: 72 hours, CellTiter-Glo, read-out: TPM3-NTRK1-wt IC50
T6 construct: host or cells: Ba/F3 (RIKEN), retroviral pMSCV-puro; the other entry of the earlier key: TPM3 (P06753, Tropomyosin alpha-3 chain)
Method in brief: as §3

[7] = tested on: TPM3-NTRK1-wt IC50 / primary target IC50 (e.g. CD74-ROS1-wt); assay: TRKA selectivity in Ba/F3 cells (TRKA potency divided by primary target potency); format: cell-based; conditions: for TPM3-NTRK1-wt/CD74-ROS1-G2032R selectivity ratio: TRKA potency / CD74-ROS1-G2032R potency; for TPM3-NTRK1-wt/CD74-ROS1-wt selectivity ratio: TRKA potency / CD74-ROS1-wt potency; for TPM3-NTRK1-wt/EML4-ALK-L1196M-G1202R selectivity ratio: TRKA potency / EML4-ALK-L1196M-G1202R potency; for TPM3-NTRK1-wt/EML4-ALK-wt selectivity ratio: TRKA potency / EML4-ALK-wt potency
Method: TRKA selectivity was calculated by dividing a compound's TRKA potency by its primary target potency (e.g. TPM3-NTRK1-wt IC50/CD74-ROS1-wt IC50). Compound selectivity can be interpreted by binning ratio values: bin A for very high selectivity, ratio >30-fold; bin B for high selectivity, ratio >10-fold; bin C for moderate selectivity, ratio ≥1; and bin D for low selectivity, ratio <1. […] (nd=not determined).

[8] = molecular target: T7, ALK L1196M/G1202R (Homo sapiens, UniProt Q9UM73, G1202R/L1196M); assay: Biochemical kinase assay, ALK L1196M/G1202R kinase domain; conditions: apparent inhibitory constant, Morrison equation; ATP 2 mM in substrate solution; read-out: ALK-L1196M-G1202R Ki^app
T7 construct: purchased SignalChem A19-12NG
Method in brief: as §2

[9] = molecular target: T8, Ba/F3 cells CD74-ROS1 G2032R (Homo sapiens, UniProt P08922, G2032R); assay: Ba/F3 cell proliferation assay, CD74-ROS1 G2032R; format: cell-based; conditions: 72 hours, CellTiter-Glo
T8 construct: fusion of the C-terminus of ROS1 with the N-terminus of various partner proteins; host or cells: Ba/F3 (RIKEN), retroviral pMSCV-puro; the other entry of the earlier key: CD74 (P04233, HLA class II histocompatibility antigen gamma chain)
Method in brief: as §1

[10] = molecular target: T9, ROS1-wt (Homo sapiens, UniProt P08922); assay: Biochemical kinase assay, ROS1-wt kinase domain; conditions: apparent inhibitory constant, Morrison equation; ATP 2 mM in substrate solution; read-out: ROS1-wt Ki^app
T9 construct: purchased Carna 08-163
Method in brief: as §4

[11] = molecular target: T10, TRKA-wt (Homo sapiens, UniProt P04629); assay: Biochemical kinase assay, TRKA-wt kinase domain; conditions: apparent inhibitory constant, Morrison equation; ATP 2 mM in substrate solution; read-out: TRKA-wt Ki^app
T10 construct: or TRKA-wt (1 nM, BPS Bio, 40280) kinase domains in buffer; purchased BPS Bio 40280
Method in brief: as §2

T6 sequence (P04629 510-796 limits assumed): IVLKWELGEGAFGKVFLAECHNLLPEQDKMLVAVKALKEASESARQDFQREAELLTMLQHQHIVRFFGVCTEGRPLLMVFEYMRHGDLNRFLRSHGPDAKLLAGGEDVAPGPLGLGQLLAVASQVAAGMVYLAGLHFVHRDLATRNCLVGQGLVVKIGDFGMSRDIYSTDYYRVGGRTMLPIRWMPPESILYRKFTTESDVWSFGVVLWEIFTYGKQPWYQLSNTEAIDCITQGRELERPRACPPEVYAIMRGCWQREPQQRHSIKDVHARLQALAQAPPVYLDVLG
T7 sequence (Q9UM73 1116-1392 L1196M/G1202R limits assumed): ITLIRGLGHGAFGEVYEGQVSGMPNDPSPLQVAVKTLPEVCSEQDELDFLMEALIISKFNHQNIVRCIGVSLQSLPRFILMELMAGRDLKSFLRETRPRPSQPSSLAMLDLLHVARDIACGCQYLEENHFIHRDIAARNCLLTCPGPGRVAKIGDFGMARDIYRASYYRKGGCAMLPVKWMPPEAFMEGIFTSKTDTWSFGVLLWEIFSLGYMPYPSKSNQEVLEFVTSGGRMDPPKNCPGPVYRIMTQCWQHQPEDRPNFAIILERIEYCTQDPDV
T5 sequence (Q9UM73 with tags, fused parts or gaps): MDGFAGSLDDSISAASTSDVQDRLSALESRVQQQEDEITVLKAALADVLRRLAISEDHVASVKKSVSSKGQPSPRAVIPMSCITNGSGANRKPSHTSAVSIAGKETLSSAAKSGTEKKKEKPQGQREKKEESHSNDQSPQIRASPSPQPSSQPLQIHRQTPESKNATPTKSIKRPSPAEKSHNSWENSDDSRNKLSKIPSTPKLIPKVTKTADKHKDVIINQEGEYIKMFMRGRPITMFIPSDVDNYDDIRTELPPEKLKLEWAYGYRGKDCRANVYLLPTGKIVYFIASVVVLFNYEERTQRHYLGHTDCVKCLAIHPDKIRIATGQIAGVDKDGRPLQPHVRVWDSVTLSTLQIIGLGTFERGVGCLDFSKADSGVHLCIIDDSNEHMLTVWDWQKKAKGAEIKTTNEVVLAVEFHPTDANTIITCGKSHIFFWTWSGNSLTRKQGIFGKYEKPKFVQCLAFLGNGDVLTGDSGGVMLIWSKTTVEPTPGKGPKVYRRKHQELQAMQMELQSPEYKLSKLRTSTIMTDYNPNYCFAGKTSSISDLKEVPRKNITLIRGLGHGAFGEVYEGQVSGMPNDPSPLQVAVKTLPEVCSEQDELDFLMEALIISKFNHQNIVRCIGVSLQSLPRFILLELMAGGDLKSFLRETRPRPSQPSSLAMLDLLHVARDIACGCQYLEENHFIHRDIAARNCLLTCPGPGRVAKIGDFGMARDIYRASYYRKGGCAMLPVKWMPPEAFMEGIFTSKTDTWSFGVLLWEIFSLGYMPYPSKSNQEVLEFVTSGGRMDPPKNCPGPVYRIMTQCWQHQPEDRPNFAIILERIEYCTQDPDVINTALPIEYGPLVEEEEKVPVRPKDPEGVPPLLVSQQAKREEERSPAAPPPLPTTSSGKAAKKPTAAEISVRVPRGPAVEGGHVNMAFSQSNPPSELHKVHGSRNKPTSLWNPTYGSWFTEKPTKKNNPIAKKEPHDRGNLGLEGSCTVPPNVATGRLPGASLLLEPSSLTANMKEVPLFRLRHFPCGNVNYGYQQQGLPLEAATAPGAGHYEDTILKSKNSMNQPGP
T1 sequence (P08922 1883-2347 limits assumed): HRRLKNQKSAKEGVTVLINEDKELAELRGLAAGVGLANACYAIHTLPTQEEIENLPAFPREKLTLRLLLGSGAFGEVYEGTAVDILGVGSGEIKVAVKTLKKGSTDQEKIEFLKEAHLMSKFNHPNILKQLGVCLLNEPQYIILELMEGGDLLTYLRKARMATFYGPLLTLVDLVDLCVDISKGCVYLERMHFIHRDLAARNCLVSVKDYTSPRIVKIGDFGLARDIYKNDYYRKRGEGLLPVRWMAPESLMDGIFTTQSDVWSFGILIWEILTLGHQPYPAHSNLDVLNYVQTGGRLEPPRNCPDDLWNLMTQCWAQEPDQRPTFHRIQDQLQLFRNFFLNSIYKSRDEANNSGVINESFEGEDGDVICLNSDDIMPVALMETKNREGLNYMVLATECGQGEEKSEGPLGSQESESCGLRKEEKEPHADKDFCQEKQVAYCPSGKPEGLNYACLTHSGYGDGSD
T10 sequence (P04629 510-781 limits assumed): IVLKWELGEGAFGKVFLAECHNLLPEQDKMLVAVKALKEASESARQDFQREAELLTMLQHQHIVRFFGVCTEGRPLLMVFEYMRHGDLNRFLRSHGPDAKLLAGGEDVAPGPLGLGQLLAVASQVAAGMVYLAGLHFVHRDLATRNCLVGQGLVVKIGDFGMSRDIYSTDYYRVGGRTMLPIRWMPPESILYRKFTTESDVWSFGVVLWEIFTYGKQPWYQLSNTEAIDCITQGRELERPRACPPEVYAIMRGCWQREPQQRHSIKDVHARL
T3 sequence (Q9UM73 with tags, fused parts or gaps L1196M/G1202R): as the sequence (Q9UM73 with tags, fused parts or gaps) above, with L635M, G641R counted along it
T9 sequence (P08922 1945-2222 limits assumed): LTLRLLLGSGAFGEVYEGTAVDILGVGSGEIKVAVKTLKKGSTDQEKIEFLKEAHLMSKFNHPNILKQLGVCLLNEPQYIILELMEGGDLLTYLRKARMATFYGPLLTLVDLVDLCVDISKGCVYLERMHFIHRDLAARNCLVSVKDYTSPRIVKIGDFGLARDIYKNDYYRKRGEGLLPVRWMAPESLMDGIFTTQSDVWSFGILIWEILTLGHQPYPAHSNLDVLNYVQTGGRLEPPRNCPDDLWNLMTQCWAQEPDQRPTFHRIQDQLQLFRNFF
T2 sequence (Q9UM73 1116-1392 limits assumed): as the sequence (Q9UM73 1116-1392 L1196M/G1202R limits assumed) above, with M81L, R87G counted along it
T8 sequence (P08922 1883-2347 G2032R limits assumed): as the sequence (P08922 1883-2347 limits assumed) above, with G150R counted along it
T4 sequence (P08922 1945-2222 G2032R limits assumed): as the sequence (P08922 1945-2222 limits assumed) above, with G88R counted along it

| Structure (SMILES) | IC50 [1] [µM] | Ki [2] [µM] | IC50 [3] [µM] | Ki [4] [µM] | IC50 [5] [µM] | IC50 [6] [µM] | TPM3-NTRK1-wt/CD74-ROS1-G2032R selectivity ratio [7] | TPM3-NTRK1-wt/CD74-ROS1-wt selectivity ratio [7] | TPM3-NTRK1-wt/EML4-ALK-L1196M-G1202R selectivity ratio [7] | TPM3-NTRK1-wt/EML4-ALK-wt selectivity ratio [7] | Ki [8] [µM] | IC50 [9] [µM] | Ki [10] [µM] | Ki [11] [µM] |
| --- | --- | --- | --- | --- | --- | --- | --- | --- | --- | --- | --- | --- | --- | --- |
| CCn1nc(Cl)c2c1-c1cnc(N)c(c1)O[C@H](C)c1cc(F)ccc1-c1oc(C)nc1C2 [Example 84, (19R)-5-chloro-3-ethyl-16-fluoro-10,19-dimethyl-11,20-dioxa-3,4,9,23-tetraazapentacyclo[19.3.1.0^2,^6.0^8,^12.0^13,^18]pentacosa-1(24),2(6),4,8(12),9,13,15,17,21(25),22-decaen-22-amine] | 0.0001 to 0.05 | < 0.05 | 0.05 to 0.5 | < 0.05 | 0.05 to 0.5 | > 0.5 | A (bin A for very high selectivity, ratio >30-fold) | A (bin A for very high selectivity, ratio >30-fold) | C (bin C for moderate selectivity, ratio ≥1) | B (bin B for high selectivity, ratio >10-fold) | < 0.05 | 0.0001 to 0.05 | < 0.05 | > 0.5 |
| CCn1nc(C)c2c1-c1cnc(N)c(c1)O[C@H](C)c1cc(F)ccc1-c1ncnn1C2 [Example 56, (19R)-3-ethyl-16-fluoro-5,19-dimethyl-20-oxa-3,4,8,9,11,23-hexaazapentacyclo[19.3.1.0^2,^6.0^8,^12.0^13,^18]pentacosa-1(24),2(6),4,9,11,13,15,17,21(25),22-decaen-22-amine] | 0.0001 to 0.05 | < 0.05 | 0.05 to 0.5 | < 0.05 | 0.0001 to 0.05 | 0.05 to 0.5 | A (bin A for very high selectivity, ratio >30-fold) | A (bin A for very high selectivity, ratio >30-fold) | C (bin C for moderate selectivity, ratio ≥1) | B (bin B for high selectivity, ratio >10-fold) | < 0.05 | 0.0001 to 0.05 | < 0.05 | 0.05 to 0.5 |
| C[C@H]1Oc2cc(cnc2N)-c2c(c(Cl)nn2CC(F)F)Cc2nn(C)nc2-c2ccc(F)cc21 [Example 60, (19R)-5-chloro-3-(2,2difluoroethyl)-16-fluoro-10,19-dimethyl-20-oxa-3,4,9,10,11,23-hexaazapentacyclo[19.3.1.0^2,^6.0^8,^12.0^13,^18]pentacosa-1(24),2(6),4,8,11,13,15,17,21(25),22-decaen-22-amine] | 0.0001 to 0.05 | 0.05 to 0.5 | > 0.5 | 0.05 to 0.5 | 0.05 to 0.5 | > 0.5 | A (bin A for very high selectivity, ratio >30-fold) | A (bin A for very high selectivity, ratio >30-fold) | B (bin B for high selectivity, ratio >10-fold) | A (bin A for very high selectivity, ratio >30-fold) | 0.05 to 0.5 | 0.0001 to 0.05 | < 0.05 | > 0.5 |
| CCn1nc(C)c2c1-c1cnc(N)c(c1)O[C@H](C)c1cc(F)ccc1-c1nn(C)nc1C2 [Example 29, (19R)-3-ethyl-16-fluoro-5,10,19-trimethyl-20-oxa-3,4,9,10,11,23-hexaazapentacyclo[19.3.1.0^2,^6.0^8,^12.0^13,^18]pentacosa-1(24),2(6),4,8,11,13,15,17,21(25),22-decaen-22-amine] | 0.0001 to 0.05 | < 0.05 | 0.0001 to 0.05 | < 0.05 | 0.0001 to 0.05 | 0.05 to 0.5 | A (bin A for very high selectivity, ratio >30-fold) | A (bin A for very high selectivity, ratio >30-fold) | C (bin C for moderate selectivity, ratio ≥1) | A (bin A for very high selectivity, ratio >30-fold) | < 0.05 | 0.0001 to 0.05 | < 0.05 | 0.05 to 0.5 |
| C[C@H]1Oc2cc(cnc2N)-c2c(C3CCC3)noc2Cn2ncnc2-c2ccc(F)cc21 [Example 52, (19R)-3-cyclobutyl-16-fluoro-19-methyl-5,20-dioxa-4,8,9,11,23-pentaazapentacyclo[19.3.1.0^2,^6.0^8,^12.0^13,^18]pentacosa-1(24),2(6),3,9,11,13,15,17,21(25),22-decaen-22-amine] | 0.0001 to 0.05 | < 0.05 | 0.05 to 0.5 | < 0.05 | 0.0001 to 0.05 | > 0.5 | A (bin A for very high selectivity, ratio >30-fold) | A (bin A for very high selectivity, ratio >30-fold) | C (bin C for moderate selectivity, ratio ≥1) | A (bin A for very high selectivity, ratio >30-fold) | < 0.05 | 0.0001 to 0.05 | < 0.05 | > 0.5 |
